We go through 1 molecule from paper PMC6225212, “Synthesis and Pharmacological Evaluation of Novel Silodosin-Based Arylsulfonamide Derivatives as α1A/α1D-Adrenergic Receptor Antagonist with Potential Uroselective Profile” (Molecules : A Journal of Synthetic Chemistry and Natural …, 2018).

A word on the IC50: it is the concentration needed to halve the response being measured. The term Ki denotes the dissociation constant of the complex between target and ligand, obtained from inhibition or displacement. Broadly, the microsomal CLint is a measure of how fast metabolising enzymes remove a compound, apart from limits set by blood flow.

For one data set, the target named is T1, α1D-ARs (Homo sapiens, UniProt P25100).
T1 sequence (P25100 1-572): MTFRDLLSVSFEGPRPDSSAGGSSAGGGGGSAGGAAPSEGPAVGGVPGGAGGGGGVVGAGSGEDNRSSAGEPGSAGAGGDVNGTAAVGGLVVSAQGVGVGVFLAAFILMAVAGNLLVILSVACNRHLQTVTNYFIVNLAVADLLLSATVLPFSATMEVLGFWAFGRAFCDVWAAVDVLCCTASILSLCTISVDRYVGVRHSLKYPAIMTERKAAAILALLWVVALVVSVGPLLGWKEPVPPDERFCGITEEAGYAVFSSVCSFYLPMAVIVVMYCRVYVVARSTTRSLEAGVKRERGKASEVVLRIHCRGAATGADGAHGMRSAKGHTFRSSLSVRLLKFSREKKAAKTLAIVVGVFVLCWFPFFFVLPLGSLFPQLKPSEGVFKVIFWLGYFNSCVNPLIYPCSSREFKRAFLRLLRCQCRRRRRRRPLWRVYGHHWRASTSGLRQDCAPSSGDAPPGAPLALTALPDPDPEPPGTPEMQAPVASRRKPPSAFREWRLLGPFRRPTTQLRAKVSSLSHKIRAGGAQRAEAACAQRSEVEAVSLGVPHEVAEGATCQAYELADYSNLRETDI
On the set-up: method as in PMID 27658792; key to α1D Profile: ANT—antagonist; AGO—agonist. The note with it: cited from earlier work.

In a further data set the target is T2, α1B-ARs (Homo sapiens, UniProt P35368).
T2 sequence (P35368 1-520): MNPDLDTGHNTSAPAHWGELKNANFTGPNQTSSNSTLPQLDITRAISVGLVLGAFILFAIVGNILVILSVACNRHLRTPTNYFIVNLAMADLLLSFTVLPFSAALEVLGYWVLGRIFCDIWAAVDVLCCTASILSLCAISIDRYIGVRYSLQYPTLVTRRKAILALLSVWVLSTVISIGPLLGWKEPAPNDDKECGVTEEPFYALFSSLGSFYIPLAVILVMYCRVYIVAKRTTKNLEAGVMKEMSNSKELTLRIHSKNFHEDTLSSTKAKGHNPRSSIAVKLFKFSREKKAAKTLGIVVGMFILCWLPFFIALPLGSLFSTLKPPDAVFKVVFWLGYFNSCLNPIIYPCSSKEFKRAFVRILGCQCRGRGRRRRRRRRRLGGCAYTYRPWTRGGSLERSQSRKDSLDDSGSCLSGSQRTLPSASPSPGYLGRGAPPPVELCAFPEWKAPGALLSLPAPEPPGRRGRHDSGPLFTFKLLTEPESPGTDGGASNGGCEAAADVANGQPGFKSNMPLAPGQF
On the set-up: method as in PMID 27658792; key to α1B Profile: ANT—antagonist; AGO—agonist. The conditions noted are these: cited from earlier work.

The target of another data set is α2-ARs. On the set-up: method as in PMID 27658792. The conditions noted are these: [3H]-Clonidine, rat cerebral cortex; ± SEM; cited from earlier work.
Data set [1] is described as follows: In vitro metabolic stability in rat-liver microsomes (RLM). In kind it is in vitro ADME. The procedure:
In vitro biotransformation assays of selected compounds 9 and 10 were performed using rat-liver microsomes (RLM), potassium-phosphate buffer, NADPH-regenerating system (NADP, glucose-6-phosphate, glucose-6-phosphate dehydrogenase), and levallorphan as internal standard, according to the previously published procedure. Compound I and the drug tamsulosin were used as reference standard. UPLC/MS analysis (Waters Corporation, Milford, MA, USA) was performed to determine the quantity of the starting material left in solution. The in vitro half-time (t1/2) for test compounds was determined from the slope of the linear regression of ln % parent compound remaining versus incubation time. The calculated t1/2 was incorporated into the following equation to obtain intrinsic clearance: (Clint) = (volume of incubation [µL]/protein in the incubation [mg]) × 0.693/t1/2.
Metabolic stability of tested compound was analyzed using incubation systems, composed of: tested compounds (10 μM), RLMs (microsomes from rat male liver, pooled; 0.2 mg/mL; Sigma Aldrich), NADPH-regenerating system (NADP+, glucose-6-phosphate and glucose-6-phosphate dehydrogenase in 100mM potassium buffer, pH 7.4; all from Sigma Aldrich), and potassium buffer, pH 7.4. […] Firstly, all samples contained incubation mixture (without NADPH-regenerating system) were preincubated in a thermoblock at 37 °C for 10 min. Then reaction was initiated by the addition of NADPH-regenerating system. In control samples NADPH-regenerating system was replaced with potassium buffer. Probes were incubated in thermoblock for 15 and 30 min at 37 °C. After addition of internal standard (levallorphan, 10 μM), the biotransformation process was stopped by addition of perchloric acid (69–72%, by volume). Next, samples were centrifuged (Centrifuge 5427 R, Eppendorf, Hamburg, Germany) and supernatants were analyzed using UPLC/MS (Waters Corporation). All experiments were run in duplicates. Half-life time was evaluated using a nonlinear regression model using Graph Pad Prism software (Graph Pad Software, La Jolla, San Diego, CA, USA) and intrinsic clearance was calculated from the equation Clint = (volume of incubation [μL]/protein in the incubation [mg]) ×∙0.693/t1/2 [33].
(In general: Microsomes from liver hold many membrane-bound enzymes, among them those of drug oxidation.)

The next data set deals with T3, α1A-ARs (Homo sapiens, UniProt P35348).
T3 sequence (P35348 1-466): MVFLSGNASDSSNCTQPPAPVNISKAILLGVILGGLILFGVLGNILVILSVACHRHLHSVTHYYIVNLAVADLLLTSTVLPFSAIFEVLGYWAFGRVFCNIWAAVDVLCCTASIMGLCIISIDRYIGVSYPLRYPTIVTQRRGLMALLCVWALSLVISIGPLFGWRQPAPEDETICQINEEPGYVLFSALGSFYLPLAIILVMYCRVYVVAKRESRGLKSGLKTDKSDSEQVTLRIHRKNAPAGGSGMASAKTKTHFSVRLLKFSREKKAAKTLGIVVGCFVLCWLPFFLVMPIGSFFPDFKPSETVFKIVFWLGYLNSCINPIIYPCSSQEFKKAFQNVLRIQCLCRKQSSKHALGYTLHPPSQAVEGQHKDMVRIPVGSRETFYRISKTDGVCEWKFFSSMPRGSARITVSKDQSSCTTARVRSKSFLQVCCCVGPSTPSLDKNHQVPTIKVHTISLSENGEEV
More on the design: method as in PMID 27658792; key to α1A Profile: ANT—antagonist; AGO—agonist. The conditions noted are these: cited from earlier work.

For the molecule `CC(C)Oc1ccccc1OCCN1CCC(CNS(=O)(=O)c2cccc(Cl)c2F)CC1` [Compound I], the half-maximal inhibitory concentration (IC50) on α1D-ARs (antagonist mode) was 15.1 nM; at α1B-ARs (antagonist mode), 42.1 nM; on α1A-ARs (antagonist mode), 11.1 nM. Also, the “α1D Profile” value at α1D-ARs (functional profile) is recorded as “ANT”. Also, on α1B-ARs (functional profile), the “α1B Profile” value is “ANT”. Further, the Ki at α2-ARs is 1210 ± 99 nM. Also, in data set [1] (RLM), the “Major Metabolic Pathway” value is “N-dealkylation”. Moreover, the microsomal CLint at 10 μM in data set [1] (male, rat, rat liver microsomes, pH 7.4, RLM 0.2 mg/mL, compound 10 μM, 37 °C) came out at 87 µL/min/mg. Also, the half-life at 10 μM in data set [1] (male, rat, rat liver microsomes, pH 7.4, RLM 0.2 mg/mL, compound 10 μM, 37 °C, read-out: t½) was 40 min. The “α1A Profile” value on α1A-ARs (functional profile) was “ANT ^b”.
